Laboratory results: patent publication US20240166687A1, “REGULATORY T CELL-INDUCING PEPTIDE AND COMPOSITION INCLUDING SAME FOR PREVENTING OR TREATING AUTOIMMUNE DISEASE” (IUCF-HYU (INDUSTRY-UNIVERSITY COOPERATION FOUNDATION …, priority 2021, published 2024)
Entries after “also recorded” stand apart in the source; their conditions may differ.

Legend:
[1] = system: Th17 cells differentiated from splenocytes isolated from mouse; test: Analysis of effect under Th17 differentiation conditions (flow cytometry of IL-17A and Foxp3); format: cell-based; settings: sample 2 μM; for effect of suppressing immune response (decrease of IL-17 and increase of Foxp3): flow cytometry 4 days later, comparator as named in the value (Th17/PBS control, K1, AP-K2); for order of the reduction of IL-17 and the increase of Foxp3 among AP-K2 variants / effect of suppressing immune response compared to the dNP2-ctCTLA-4 group: 4 days; for effect of suppressing immune response compared to the dNP2-ctCTLA-4 group: versus dNP2-ctCTLA-4 positive control
Source text: Th17 cells are a subset of CD4 T cells. The Th17 cells are known to secrete a cytokine known as IL-17 and cause inflammation. This is the major cause of autoimmune disease. And, Treg cells (regulatory T cells) are known to suppress and regulate inflammation by expressing the transcription factor called Foxp3. Accordingly, since it is thought that the effect of preventing and treating autoimmune disease may be achieved by regulating inflammation by inhibiting Th17 cells (IL-17) and increasing Treg (Foxp3) cells, the effect of the peptides of the present disclosure was investigated.
Undifferentiated CD4 T cells (naive CD4 T cells) were isolated from splenocytes of 6- to 8-week-old C57BL/6 mice using a mouse undifferentiated CD4+ T cell (naive CD4 T cell) isolation kit (Miltenyi Biotec, Auburn, CA, USA) according to the manufacturer's protocols. For RNAseq, the undifferentiated CD4 T cells (naive CD4 T cells) from the Foxp3-GFP mice were purified, differentiated into Th17 cells and sorted into Foxp3^+ and Foxp3^− populations using a cell sorter (FACS Aria cell sorter BD Biosciences, Franklin Lakes, NJ, USA). The purified undifferentiated CD4 T cells (naive CD4 T cells) were activated with plate-bound anti-CD3 (2 or 5 μg/mL, 553057; BD Pharmingen, La Jolla, CA) and anti-CD28 (2 or 5 μg/mL, 553294; BD Pharmingen, La Jolla, CA) antibodies and differentiated by treating with the following cytokine cocktails in a 96-well plate for 3 or 4 days: Th0; recombinant human TGF-β(R&D Systems) 0.25 ng/mL. Th1; anti-IL-4 (11B11; 16-7041-85; eBioscience) 5 μg/mL, IL-2 (212-12; Peprotech, Rocky Hill, NJ) 50 U/mL, recombinant murine IL-12 (212-12; Peprotech) 2 ng/mL, recombinant human TGF-β (R&D Systems) for Th1 0.25 ng/mL. Th17; anti-IFN-γ (XMG1.2; 16-7311-85; eBioscience) 5 μg/mL, anti-IL-4 (11B11; 16-7041-85; eBioscience) 5 μg/mL, recombinant murine TGF-β (7666-MB, R&D Systems, Minneapolis, MN) 2 ng/mL, IL-6 (216-16; Peprotech) 30 ng/mL, IL-23 (1887-ML-101; R&D Systems) 20 ng/mL, IL-1β (401-ML-010; R&D Systems) 20 ng/mL, and IL-2 (Peprotech) 50 U/mL. Treg; IL-2 (Peprotech) 50 U/mL and TGF-β (R&D Systems) 0.5 ng/mL.
The cells were cotreated with the cytokine cocktails and the samples (2 μM). 4 days later, they were analyzed by flow cytometry using IL-17 and Foxp3 fluorescent antibodies. In some experiments, 5 μM PKC-η pseudosubstrate inhibitor (sc-3096; Santa Cruz) or 5 μM ERK inhibitor (UO126, 662005; Sigma) were also added.
For flow cytometric analysis of living cells only, dead cells were excluded using the Zombie Aqua™ fixable viability kit (Biolegend) before staining with antibodies at room temperature for 10 minutes. After washing, surface proteins of the differentiated Th1, Th17 and Treg cells were stained with monoclonal antibodies at 4° C. for 15 minutes. To determine intracellular cytokine levels, the cells were restimulated with a cell stimulation cocktail (plus protein transport inhibitors) (ThermoFisher) at 37° C. for 4 hours and then stained with surface marker antibodies. The cells were then fixed, permeabilized using a Foxp3/transcription factor staining buffer set (eBioscience) and stained with anti-mouse IFN-γ, anti-mouse IL-17 and anti-mouse Foxp3. The cells were analyzed using a FACS Canto II flow cytometer and the FlowJo software version 10.7.

[2] = system: multiple sclerosis animal model; test: Analysis of efficiency in multiple sclerosis (MS) animal model (MOG35-55/CFA + PTX); format: in vivo, C57BL/6 mice; settings: for clinical symptoms (clinical score): 100 μg (5 mg/kg) intraperitoneally once a day from day 7 after PTX; for clinical symptoms (clinical score) / number of Treg cells (spinal cord) / number of infiltrated lymphocytes in the spinal cord: comparator as named in the value; for number of Treg cells (spinal cord) / number of infiltrated lymphocytes in the spinal cord: 100 μg intraperitoneally once a day from day 7
Experimental: 8-week-old female C57BL/6 mice were purchased from Orient Bio (Daejeon, Korea). All animal experiments were conducted in compliance with the animal experiment operation regulations of the Institutional Animal Care and Use Committee of Hanyang University. The mice were acclimatized for 2 weeks before the experiment. The mice were raised in a breeding room maintained at temperature 22±2° C. and 40-60% humidity with free access to feed. The light and dark cycles were adjusted at 12-hour intervals. Multiple sclerosis was induced by subcutaneous immunization using a MOG35-55/CFA emulsion PTX kit (Hooke Labs, Lawrence, MA, USA) according to the manufacturer's protocol. The mice were anesthetized with isoflurane and MOG35-55/CFA was subcutaneously injected bilaterally, followed by intraperitoneal injection of PTX (pertussis toxin) 2 hours and 24 hours later. The mice were randomly assigned to different groups after MOG immunization. Because paralysis due to immune response begins on day 7 after the injection of PTX, 100 μg (5 mg/kg) of the samples according to the present disclosure were intraperitoneally injected to the groups once a day from day 7. Each group was monitored every day after inducing multiple sclerosis and clinical symptoms were recorded. The clinical symptoms were evaluated based on the scoring system described in Table 2. The higher clinical scores indicate severer symptoms. The mice were euthanized at the end of the experiments and lymphocytes were isolated from the spinal cords. The isolated spinal cords were treated at 37° C. with 1 mg/mL of DNase 1 (10104159001; Sigma-Aldrich) and 1 mg/mL of collagenase D (11088866001; Sigma-Aldrich) and incubated at 80 rpm on a shaker for 40 minutes. After the enzyme treatment, 500 mM EDTA was added and lymphocytes were isolated by Percoll (GE Healthcare, Little Chalfont, UK) density-gradient centrifugation. The isolated infiltrated lymphocytes were restimulated with a cell stimulation cocktail (plus protein transport inhibitors) (ThermoFisher) at 37° C. for 4 hours and stained with anti-mouse CD4. The cells were fixed, permeabilized using a Foxp3/transcription factor staining buffer set (eBioscience) and stained with anti-mouse IFN-γ, anti-mouse IL-17 or anti-mouse Foxp3. The cells were analyzed using a FACS Canto flow cytometer and the FlowJo software version 10.7.1. For histological analysis, paraffin blocks of the spinal cord tissues were deparaffinized and treated with luxol fast blue. For combination staining, hematoxylin and eosin were used (Dako). The cells infiltrated in the white matter region of the spinal cord tissues were counted using the Image J software version 2.0.0. The increased number of Th1 and Th17 immune cells in the spinal cord means more severe multiple sclerosis, and the increased number of Treg cells means that the function of preventing or treating autoimmune disease such as multiple sclerosis is improved as the tolerance to self-antigens is maintained and the excessive response by the immune system is prevented.

“RRRWCKRRRGGAMLAAASAMLAAAS (AP-K2 KA) [negative control, lysine and arginine residues of AP-K2 replaced with alanine]” was tested, and the “effect of suppressing immune response (decrease of IL-17 and increase of Foxp3)” value [1] was “decreased slightly”.

RRRWCKRRRGGKALKKRSKALKKRS (AP-K2 MA) was tested, and the “order of the reduction of IL-17 and the increase of Foxp3 among AP-K2 variants” value [1] was “in the order of the AP-K2 SA group, the AP-K2 2KA group, the AP-K2 3KA group and the AP-K2 MA group”.

For PPTEPECE (P) [motif of CTLA4], the “effect of suppressing immune response (decrease of IL-17 and increase of Foxp3)” value [1] was “did not show significant difference from the dNP2 group or the Th17 group”.

In the case of SPLTTGV (S) [motif of CTLA4], the “effect of suppressing immune response (decrease of IL-17 and increase of Foxp3)” value [1] is reported as “did not show significant difference from the dNP2 group or the Th17 group”.

In the case of “KMLKKRS (K1) [Example K1, single K motif of CTLA4 without CPP, fatty acid or linker]”, the “effect of suppressing immune response (decrease of IL-17 and increase of Foxp3)” value [1] is reported as “did not show significant difference from Th17 (control group)” and the “effect in the multiple sclerosis animal model (overall)” value ([2]; 100 μg intraperitoneally once a day from day 7 to day 18) is reported as “does not show significant effect on its own in the multiple sclerosis animal model”.

With “KMLKKRSGGGGSKMLKKRS (K2(G4S)) [K2 (G4S)]” the “effect of suppressing immune response (decrease of IL-17 and increase of Foxp3)” value [1] was “the activity of inhibiting immune cells is significantly superior”, the “clinical symptoms (clinical score)” value [2] was “significantly remarkable superior result in clinical symptoms than the K1 group” and the “number of Treg cells (spinal cord)” value [2] was “larger number of Treg cells than the K1 group”. The “number of infiltrated lymphocytes in the spinal cord” value (shortened to “number of infiltrated lymphocytes”) [2] was “significantly number of infiltrated lymphocytes in the spinal cord as compared to the K1 group”.

In the case of RRRWCKRRRGGKMAKKRSKMAKKRS (AP-K2 LA), the “effect of suppressing immune response (decrease of IL-17 and increase of Foxp3)” value [1] is reported as “slightly decreased function of AP-L2”.

With RRRWCKRRRGGKMLKKRAKMLKKRA (AP-K2 SA) the “order of the reduction of IL-17 and the increase of Foxp3 among AP-K2 variants” value [1] was “in the order of the AP-K2 SA group, the AP-K2 2KA group, the AP-K2 3KA group and the AP-K2 MA group”.

RRRWCKRRRGGKMLKKASKMLKKAS (AP-K2 RA) was tested, and the “effect of suppressing immune response (decrease of IL-17 and increase of Foxp3)” value [1] was “decreased significantly”.

“YFIPIN (Y2) [Example Y2, motif of CTLA4]” was tested, and the “effect of suppressing immune response (decrease of IL-17 and increase of Foxp3)” value [1] was “did not show significant difference from the dNP2 group or the Th17 group”.

KMLKKRSKMLKKRSKMLKKRS (K3) [Example K3] was tested, and the “effect of suppressing immune response compared to the dNP2-ctCTLA-4 group” value [1] was “comparable effect”, the “effect of suppressing immune response (decrease of IL-17 and increase of Foxp3)” value [1] was “significantly better effect of suppressing immune response than the PBS (control group); also recorded: significantly superior effect of suppressing immune response as compared to the PBS group” and the “effect of suppressing immune response (decrease of IL-17 and increase of Foxp3)” value ([1]; listed as Example 4) was “the activity of inhibiting immune cells is significantly superior”. The “clinical symptoms (clinical score)” value [2] was “significantly remarkable superior result in clinical symptoms than the K1 group”, the “number of Treg cells (spinal cord)” value [2] was “larger number of Treg cells than the K1 group” and the “number of infiltrated lymphocytes” value [2] was “significantly number of infiltrated lymphocytes in the spinal cord as compared to the K1 group”.

RRRWCKRRRGGKMLKARSKMLKARS (AP-K2 3KA) was tested, and the “order of the reduction of IL-17 and the increase of Foxp3 among AP-K2 variants” value [1] was “in the order of the AP-K2 SA group, the AP-K2 2KA group, the AP-K2 3KA group and the AP-K2 MA group”.

In the case of RRRWCKRRRGGAMLKKRSAMLKKRS (AP-K2 1KA), the “effect of suppressing immune response (decrease of IL-17 and increase of Foxp3)” value [1] is reported as “decreased significantly”.

In the case of YVKM (Y1) [Example Y1, motif of CTLA4], the “effect of suppressing immune response (decrease of IL-17 and increase of Foxp3)” value [1] is reported as “did not show significant difference from the dNP2 group or the Th17 group”.

With “KIKKVKKKGRKGSKIKKVKKKGRKGGKMLKKRSPLTTGVYVKM (dNP2-KSY) [deleted variant of dNP2-ctCTLA-4]” the “clinical symptoms (clinical score)” value [2] was “significantly superior in terms of clinical symptoms as compared to the TAT-ctCTLA-4 group and the PBS group” and the “number of infiltrated lymphocytes” value [2] was “significantly smaller number of infiltrated lymphocytes in the spinal cord as compared to the TAT-ctCTLA-4 group and the PBS group”.

With “KMLKKRSKMLKKRS (K2) [Example K2, two K motifs of CTLA4 linked, no linker]” the “effect of suppressing immune response compared to the dNP2-ctCTLA-4 group” value [1] was “comparable effect”, the “effect of suppressing immune response (decrease of IL-17 and increase of Foxp3)” value [1] was “significantly better effect of suppressing immune response than the PBS (control group); also recorded: significantly superior effect of suppressing immune response as compared to the PBS group” and the “clinical symptoms (clinical score)” value [2] was “significantly improved result for clinical symptoms as compared to the PBS group”. The “number of infiltrated lymphocytes” value [2] was “significantly smaller number of infiltrated lymphocytes in the spinal cord than the PBS (control group)”.

RRRWCKRRRGGKMLAKRSKMLAKRS (AP-K2 2KA) was tested, and the “order of the reduction of IL-17 and the increase of Foxp3 among AP-K2 variants” value [1] was “in the order of the AP-K2 SA group, the AP-K2 2KA group, the AP-K2 3KA group and the AP-K2 MA group”.

B1: KIKKVKKKGRKGSKIKKVKKKGRKGGKMLKKRSPLTTGVYVKMAATEAECEKQFQPYFIPIN (peptide)
chain: KIKKVKKKGRKGSKIKKVKKKGRKGGKMLKKRSPLTTGVYVKMAATEAECEKQFQPYFIPIN
notes: dNP2-ctCTLA-4 variant
With B1 the “clinical symptoms (clinical score)” value [2] was “significantly lower clinical symptoms as compared to the PBS group” and the “number of infiltrated lymphocytes” value [2] was “significantly larger number of infiltrated lymphocytes in the spinal cord as compared to the PBS group”.
